Data: patent publication EP4678179A1, “PHARMACEUTICAL COMPOSITION CONTAINING ACTIVE SULFUR MOLECULE” (Tohoku University, priority 2023, dated 2024)

What was measured:
Rag2-/- host mice = experiment: T cell transfer enteritis (IBD) model: naive CD4+ T cells transferred into Rag2-/- mice, GSSSG administered intraperitoneally; format: in vivo
Description: CD4^+ T cells were magnetically sorted from splenocytes of young mice (from 8 to 12 weeks old). Then, naive CD4^+ T cells (CD3^+ CD4^+ CD25^- CD44^lo CD62L^hi or CD3^+ CD4^+ Foxp3-RFP^- CD44^lo CD62L^hi) were sorted using FACS AriaII (BD Bioscience) based on fluorescently labeled monoclonal antibodies or reporter fluorescent proteins. In experiments to confirm homeostatic maintenance proliferation, naive CD4^+ T cells were labeled with carboxyfluorescein succinimidyl ester (CFSE) (Thermo Fisher Scientific), and were injected into the tail veins of CD45.1 host mice irradiated with a sublethal dose (5.5 Gy), at 1 × 10^6 cells per mouse 1 day before transfer. In experiments to induce enteritis, wild-type or Cars2^+/- naive CD4^+ T cells were injected into the tail veins of Rag2^-/- mice at 3 × 10^5 cells per mouse. In experiments to evaluate the function of regulatory T cells, Cars2^+/+ naive CD4^+ T cells were co-transferred with regulatory T cells derived from Cars2^+/- Foxp3-RFP reporter mice (1 × 10^5 cells/mouse). In GSSSG administration experiments, GSSSG (400 nmol/mouse) was intraperitoneally administered to the Rag2^-/- host mice every day from the same day as the day when the naive CD4^+ T cells were transferred.
At the stage where from 3 to 4 weeks had elapsed after the transfer of the naive T cells, the large intestines of the Rag2^-/- host mice were collected and fixed with 10% formalin. After the fixed samples were embedded in paraffin, 5-µm-thick sections were cut out and subjected to hematoxylin-eosin staining (H & E) and immunostaining with a CD4 monoclonal antibody (mAb) (EPR19514). The histological inflammation score was classified into three groups with reference to a previous report (Biswas et al., Nat Commun 9, 1779 (2018)).
Therefore, using the same IBD model, wild-type and Cars2+/- naive CD4+ T cells were adoptively transferred to Rag2-/- mice, and the properties of the donor cells and the IBD pathological conditions of the host mice were observed over time. […] Since there was no significant difference in proportion of dead cells between the two groups (FIGS. 4F, 5C, and 5F), the reason for the increase in number of accumulated cytokine-producing Cars2+/- T cells is considered to be enhanced homeostatic maintenance proliferation of the donor cells.
To confirm whether CARS2 suppresses the proliferation of enteritis pathogenic T cells via active sulfur, GSSSG, which is a donor of an active sulfur molecule, was administered to Rag2-/- host mice, and as a result, the body weight loss of the individuals transplanted with Cars2+/- CD4+ T cells was suppressed, and the reduction in histological enteritis images was observed (FIGS. 8A to 8C).

human CD4+ T cells = experiment: Cell cycle analysis of human naive CD4+ T cells stimulated with CD3/CD28 in the presence or absence of GSSSG; format: cell-based; conditions: naive CD4+ T cells from peripheral bloods of healthy individuals; CD3/CD28 stimulation; GSSSG 1 µM; 48 hours; FIG. 10E
Procedure: Peripheral mononuclear blood cells were isolated using Vacutainer (BD Bioscience), and naive CD4^+ T cells (CD3^+ CD4^+ CD25^- CD45RO^- CD45RA^+) were purified from the isolated mononuclear cells using FACS AriaII (BD Bioscience). The purified naive CD4^+ T cells were seeded in a 96-well plate at 5 × 10^4 cells per well, and stimulated with Dynabeads™ Human T-Activator CD3/CD28 (Thermo Fischer Scientific) in an RPMI medium (10% FCS) in the presence or absence of GSSSG (1 µM) for 48 hours.
Finally, the involvement of active sulfur in the regulation of the proliferation of human CD4+ T cells was examined through in vitro cell culture. Specifically, naive CD4+ T cells purified from peripheral bloods of healthy individuals were stimulated with CD3/CD28 in the presence and absence of GSSSG to induce the proliferative response, and the cell cycle was analyzed 48 hours after the stimulation. […] Thus, it was shown that CARS2-dependent active sulfur metabolism also suppresses the cell cycle entry also in human CD4+ T cells and limits the proliferation of the same cells.

HDM-treated mice = experiment: HDM-induced mouse asthma model (type 2 airway inflammation), intraperitoneal GSSSG; format: in vivo
Procedure: Asthma model mice were created according to a previous report (Ishii et al., Scandinavian journal of immunology. 2018; 87 (3)). Specifically, as shown in the FIG. 5A, mice were intranasally administered with HDM extract (at the indicated doses in PBS) under isoflurane anesthesia to induce asthma.
Twenty four (24) hours after the last dose of HDM, the mice were anesthetized and sacrificed by exsanguination. The alveoli were washed three times with 500 µL of 10 mM PBS, and the bronchial alveolar lavage fluid (BALF) was collected. For 5 minutes, […], then the supernatant was stored for biochemical analysis, and the cellular pellet was resuspended in 500 µL of 10 mM PBS. The total number of cells was counted using a Scepter handheld automated cell counter (Millipore), followed by cytospin specimen preparation and staining with Diff-Quick (Sysmex) or Eosinostain-Torii (Torii Pharmaceutical).
Isolation of cells from mouse lung tissue and FCM were performed according to previous reports (Gomez et al., American journal of respiratory cell and molecular biology. 2015; 52 (3): 349-64., and Yamada et al., American journal of respiratory and critical care medicine. 2011; 183 (10): 1391-401.). For histological examination of lung inflammation, lung sections were stained with hematoxylin and eosin (HE). Lung inflammation was semi-quantified and evaluated according to a previous report.
It was investigated whether intraperitoneal administration of GSSSG in vivo suppresses an HDM-induced type 2 airway inflammation. […] Thus, GSSSG has therapeutic potential in CD4 T cell-mediated type 2 inflammatory diseases, including asthma, by organizing TCR signaling.

Compound: N[C@@H](CCC(=O)N[C@@H](CSSSC[C@H](NC(=O)CC[C@H](N)C(=O)O)C(=O)NCC(=O)O)C(=O)NCC(=O)O)C(=O)O [GSSSG, glutathione trisulfide]
- therapeutic effect (Rag2-/- host mice; Rag2-/- host mice transfused with wild-type CD4+ T cells, GSSSG 400 nmol/mouse intraperitoneally every day, FIGS. 9A to 9C): no significant therapeutic effect
- body weight loss (Rag2-/- host mice; Rag2-/- host mice transplanted with Cars2+/- CD4+ T cells, GSSSG 400 nmol/mouse intraperitoneally every day, FIG. 8A): suppressed
- histological enteritis images (Rag2-/- host mice; Rag2-/- host mice transplanted with Cars2+/- CD4+ T cells, GSSSG 400 nmol/mouse intraperitoneally every day, large intestine, H & E and CD4 immunostaining, FIGS. 8B, 8C): reduction
- enteritis induced by Cars2+/- CD4+ T cells (Rag2-/- host mice; figure legend of FIG. 8, administration of GSSSG to host mice): improved
- cell cycle entry of the naive CD4+ T cells (human CD4+ T cells): significantly suppressed
- accumulation of inflammatory cells, particularly eosinophils, in the airways (HDM-treated mice; both Cars2+/- mice and WT mice, HDM-treated, 1 mM GSSSG intraperitoneal, BALF, FIG. 14E): significantly suppressed
- lung inflammation (HDM-treated mice; both HDM-treated Cars2+/- mice and HDM-treated WT mice, GSSSG treatment, HE-stained lung tissue, FIG. 14F): significantly reduced
- goblet cell hyperplasia (HDM-treated mice; both HDM-treated Cars2+/- mice and HDM-treated WT mice, GSSSG treatment, PAS-stained lung tissue, FIG. 14G): significantly reduced
